From patent US5312919A, “Photooxidation products and derivatives thereof of merocyanine-540, their preparation and uses” (priority 1992, dated 1994)
Read-outs that look alike come from different tables or passages of the source.

Assays:
Format in all cases: cell-based
[1] = tested on: BT-20 (breast, adenocarcinoma); experiment: Inhibition of cell proliferation, BT-20 (MTT assay); settings: Homo sapiens; for inhibition at 1.56 µg/mL: 1.56 μg/ml; for inhibition at 1.56 µg/mL / inhibition at 3.13 µg/mL / inhibition at 6.25 µg/mL / inhibition at 12.5 µg/mL: read-out: % inhibition of cell proliferation; for inhibition at 3.13 µg/mL: 3.13 μg/ml; for inhibition at 6.25 µg/mL: 6.25 μg/ml; for inhibition at 12.5 µg/mL: 12.5 μg/ml; for inhibition at 25 µg/mL: 25.0 μg/ml
Description: Preactivated MC 540 is abbreviated as pMC 540. […] 52: 831-38 (1990); and T. Mosmann, J. Immulog. Methods 65: 55-63 (1983). […]

8226 (multiple myeloma) = experiment: Inhibition of cell proliferation, 8226 (MTT assay); settings: 24 hr.
Description: (§1) Preactivated MC 540 is abbreviated as pMC 540. […] 52: 831-38 (1990); and T. Mosmann, J. Immulog. Methods 65: 55-63 (1983).
(§2) Each cell type (1×10^6 cells/ml; in triplicate) was treated with indicated concentrations of merocil or merodantoin. […] The cytotoxicity in vehicle only (cremophor EL) controls was not detectable at highest dose tested.

[2] = tested on: human immunodeficiency virus (HIV-1); experiment: Inactivation of cell free human immunodeficiency virus (viability of MT-4 target cells, MTT assay)
Description: as §1
(§3) Cell free human immunodeficiency virus (HIV-1) was either left untreated or treated with indicated doses of Merocil or Merodantoin for one hour at 37° C. and added to MT-4 target cells. After 4 hour incubation at 37° C., the cells were washed three times and further incubated in drug free fresh growth medium (complete RPMI-1640) at 37° C. for 4 days. On day four, 50% of the culture supernatant was replaced with fresh growth medium to prevent cell death due to possible nutrient depletion. The viability of the cell was determined on day 11 by MTT assay. […] The viability of the MT-4 cells was not affected by Merocil or Merodantoin under the experimental conditions described above.

[3] = tested on: JEG-3 (choriocarcinoma, human); experiment: Inhibition of cell proliferation, JEG-3 (MTT assay); settings: for inhibition at 1.56 µg/mL / inhibition at 3.13 µg/mL / inhibition at 6.25 µg/mL / inhibition at 12.5 µg/mL: read-out: % inhibition of cell proliferation
Description: as §1
(§4) Each cell type (1×10^6 cells/ml; in triplicate) was treated with indicated concentrations of merocil or merodantoin. After overnight (20 hr.) or 5 day incubation periods, the cell viability was determined by MTT assay and calculated as a percentage of untreated controls. The toxicity in vehicle only (cremophor EL) controls was not detectable at highest dose tested.

U266B1 (myeloma) = experiment: Inhibition of cell proliferation, U266B1 (MTT assay); settings: 24 hr.
Description: as §1, §2

[4] = Cytotoxicity on normal human peripheral blood mononuclear cells (trypan blue dye exclusion); settings: human, peripheral blood mononuclear cells, overnight, 37° C., read-out: % cell kill (mean ± S.E.M.)
Description: (§5) Preactivated MC 540 is abbreviated as pMC 540.
(§6) Merocil and Merodantoin were dissolved in cremophor EL whereas pMC 540 was prepared in 10% aqueous ethanol. […] Fresh human peripheral mononucleas cells (1×10^6 cells/ml) were treated with indicated concentration of compounds. After overnight incubation at 37° C., cell viability was determined by trypan blue dye exclusion method.

[5] = tested on: normal human peripheral blood mononuclear cells; experiment: as above; settings: doses of Table 1
Description: as §5, §6

[6] = tested on: H.S. Sultan (multiple myeloma); experiment: Inhibition of cell proliferation, H.S. Sultan (MTT assay); settings: 24 hr.
Description: as §1, §2

[7] = tested on: DU 145 (prostate, carcinoma, human); experiment: Inhibition of cell proliferation, DU 145 (MTT assay); settings: for inhibition at 1.56 µg/mL / inhibition at 3.13 µg/mL / inhibition at 6.25 µg/mL / inhibition at 12.5 µg/mL: read-out: % inhibition of cell proliferation
Description: as §1, §4

[8] = tested on: MS 751 (cervix, carcinoma, human); experiment: Inhibition of cell proliferation, MS 751 (MTT assay); settings: for inhibition at 1.56 µg/mL / inhibition at 3.13 µg/mL / inhibition at 6.25 µg/mL / inhibition at 12.5 µg/mL: read-out: % inhibition of cell proliferation
Description: as §1, §4

certain tumor cells = experiment: Inhibition of proliferation of tumor cells (overall conclusion)
Description: as §1

MT-4 cells = experiment: Effect on viability of MT-4 cells; settings: experimental conditions of Table 8
Description: as §3

[9] = tested on: C-33A (carcinoma cervix, human); experiment: Inhibition of cell proliferation, C-33A (MTT assay); settings: for inhibition at 1.56 µg/mL: 1.56 μg/ml; for inhibition at 1.56 µg/mL / inhibition at 3.13 µg/mL / inhibition at 6.25 µg/mL / inhibition at 12.5 µg/mL: read-out: % inhibition of cell proliferation; for inhibition at 3.13 µg/mL: 3.13 μg/ml; for inhibition at 6.25 µg/mL: 6.25 μg/ml; for inhibition at 12.5 µg/mL: 12.5 μg/ml; for inhibition at 25 µg/mL: 25.0 μg/ml
Description: as §1, §4

[10] = 1.56 μg/ml, read-out: % inhibition of cell proliferation
[11] = 3.13 μg/ml, read-out: % inhibition of cell proliferation
[12] = 6.25 μg/ml, read-out: % inhibition of cell proliferation
[13] = 12.5 μg/ml, read-out: % inhibition of cell proliferation

CCCCN1C(=O)C(=O)N(CCCC)C1=S [Merodantoin, N,N'-Dibutyl-2-thio-4,5-imidazolindion]
inhibition at 1.56 µg/mL ([1]; BT-20, 96 h, 4 days): 19% | inhibition at 3.13 µg/mL ([1]; BT-20, 96 h, 4 days): 52% | inhibition at 6.25 µg/mL ([1]; BT-20, 96 h, 4 days): 20% | inhibition at 12.5 µg/mL ([1]; BT-20, 96 h, 4 days): 12% | inhibition at 25 µg/mL ([1]; BT-20, 96 h, 4 days): 73% | inhibition at 1.56 µg/mL ([1]; BT-20, 48 hr.): 0% | inhibition at 3.13 µg/mL ([1]; BT-20, 48 hr.): 0% | inhibition at 6.25 µg/mL ([1]; BT-20, 48 hr.): 0% | inhibition at 12.5 µg/mL ([1]; BT-20, 48 hr.): 8% | inhibition at 25 µg/mL ([1]; BT-20, 48 hr.): 26% | inhibition at 1.56 µg/mL (8226 (multiple myeloma); [10]): 20% | inhibition at 3.13 µg/mL (8226 (multiple myeloma); [11]): 16% | inhibition at 6.25 µg/mL (8226 (multiple myeloma); [12]): 20% | inhibition at 12.5 µg/mL (8226 (multiple myeloma); [13]): 30% | inhibition at 25 µg/mL (8226 (multiple myeloma); 25.0 μg/ml): 46% | inactivation of cell free HIV ([2]; 75 μg/ml dose): virtually complete inactivation of the virus | viability at 25 µg/mL ([2]; Human immunodeficiency virus 1, MT4, 264 h, MT-4 cells + HIV treated with 25 μg/ml, one hour 37° C., day 11, untreated HIV-1 36.75): 73.5% | viability at 50 µg/mL ([2]; Human immunodeficiency virus 1, MT4, 264 h, MT-4 cells + HIV treated with 50 μg/ml, one hour 37° C., day 11, untreated HIV-1 36.75): 94.3% | viability at 75 µg/mL ([2]; Human immunodeficiency virus 1, MT4, 264 h, MT-4 cells + HIV treated with 75 μg/ml, one hour 37° C., day 11, untreated HIV-1 36.75): 102% | inactivating human immunodeficiency virus (HIV-1) ([2]; conclusion): effective | inhibition at 1.56 µg/mL ([3]; JEG-3, 1.56 μg/ml, 20 hr.): 15% | inhibition at 3.13 µg/mL ([3]; JEG-3, 3.13 μg/ml, 20 hr.): 53% | inhibition at 6.25 µg/mL ([3]; JEG-3, 6.25 μg/ml, 20 hr.): 88% | inhibition at 12.5 µg/mL ([3]; JEG-3, 12.5 μg/ml, 20 hr.): 100% | inhibition at 25 µg/mL ([3]; JEG-3, 25.0 μg/ml, 20 hr.): 100% | inhibition at 1.56 µg/mL ([3]; JEG-3, 120 h, 1.56 μg/ml, 5 days): 18% | inhibition at 3.13 µg/mL ([3]; JEG-3, 120 h, 3.13 μg/ml, 5 days): 38% | inhibition at 6.25 µg/mL ([3]; JEG-3, 120 h, 6.25 μg/ml, 5 days): 91% | inhibition at 12.5 µg/mL ([3]; JEG-3, 120 h, 12.5 μg/ml, 5 days): 100% | inhibition at 25 µg/mL ([3]; JEG-3, 120 h, 25.0 μg/ml, 5 days): 100% | inhibition at 1.56 µg/mL (U266B1 (myeloma); [10]): 8% | inhibition at 3.13 µg/mL (U266B1 (myeloma); [11]): 10% | inhibition at 6.25 µg/mL (U266B1 (myeloma); [12]): 10% | inhibition at 12.5 µg/mL (U266B1 (myeloma); [13]): 12% | inhibition at 25 µg/mL (U266B1 (myeloma); 25.0 μg/ml): 12% | cytotoxicity ([4]; 1.56 μg/ml): 4.33 ± 1.07% | cytotoxicity ([4]; 3.13 μg/ml): 3.67 ± 0.51% | cytotoxicity ([4]; 6.25 μg/ml): 5.33 ± 0.84% | cytotoxicity ([4]; 12.5 μg/ml): 11.3 ± 1.83% | cytotoxicity ([4]; 25.0 μg/ml): 25.7 ± 0.51% | toxicity to normal human peripheral blood mononuclear cells [5]: relatively non-toxic | inhibition at 1.56 µg/mL [6, 10]: 18% | inhibition at 3.13 µg/mL [6, 11]: 34% | inhibition at 6.25 µg/mL [6, 12]: 54% | inhibition at 12.5 µg/mL [6, 13]: 77% | inhibition at 25 µg/mL ([6]; 25.0 μg/ml): 87% | inhibition at 1.56 µg/mL ([7]; DU-145, 1.56 μg/ml, 20 hr.): 0% | inhibition at 3.13 µg/mL ([7]; DU-145, 3.13 μg/ml, 20 hr.): 1% | inhibition at 6.25 µg/mL ([7]; DU-145, 6.25 μg/ml, 20 hr.): 8% | inhibition at 12.5 µg/mL ([7]; DU-145, 12.5 μg/ml, 20 hr.): 9% | inhibition at 25 µg/mL ([7]; DU-145, 25.0 μg/ml, 20 hr.): 11% | inhibition at 1.56 µg/mL ([7]; DU-145, 120 h, 1.56 μg/ml, 5 days): 54% | inhibition at 3.13 µg/mL ([7]; DU-145, 120 h, 3.13 μg/ml, 5 days): 85% | inhibition at 6.25 µg/mL ([7]; DU-145, 120 h, 6.25 μg/ml, 5 days): 99% | inhibition at 12.5 µg/mL ([7]; DU-145, 120 h, 12.5 μg/ml, 5 days): 100% | inhibition at 25 µg/mL ([7]; DU-145, 120 h, 25.0 μg/ml, 5 days): 100% | inhibition at 1.56 µg/mL ([8]; MS751, 1.56 μg/ml, 20 hr.): 8% | inhibition at 3.13 µg/mL ([8]; MS751, 3.13 μg/ml, 20 hr.): 24% | inhibition at 6.25 µg/mL ([8]; MS751, 6.25 μg/ml, 20 hr.): 20% | inhibition at 12.5 µg/mL ([8]; MS751, 12.5 μg/ml, 20 hr.): 28% | inhibition at 25 µg/mL ([8]; MS751, 25.0 μg/ml, 20 hr.): 41% | inhibition at 1.56 µg/mL ([8]; MS751, 120 h, 1.56 μg/ml, 5 days): 11% | inhibition at 3.13 µg/mL ([8]; MS751, 120 h, 3.13 μg/ml, 5 days): 23% | inhibition at 6.25 µg/mL ([8]; MS751, 120 h, 6.25 μg/ml, 5 days): 66% | inhibition at 12.5 µg/mL ([8]; MS751, 120 h, 12.5 μg/ml, 5 days): 90% | inhibition at 25 µg/mL ([8]; MS751, 120 h, 25.0 μg/ml, 5 days): 100% | inhibiting the proliferation of certain tumor cells (certain tumor cells): effective | viability of the MT-4 cells (MT-4 cells): not affected | inhibition at 1.56 µg/mL ([9]; 20 hr.): 16% | inhibition at 3.13 µg/mL ([9]; 20 hr.): 29% | inhibition at 6.25 µg/mL ([9]; 20 hr.): 36% | inhibition at 12.5 µg/mL ([9]; 20 hr.): 49% | inhibition at 25 µg/mL ([9]; 20 hr.): 56% | inhibition at 1.56 µg/mL ([9]; 120 h, 5 days): 11% | inhibition at 3.13 µg/mL ([9]; 120 h, 5 days): 34% | inhibition at 6.25 µg/mL ([9]; 120 h, 5 days): 86% | inhibition at 12.5 µg/mL ([9]; 120 h, 5 days): 63% | inhibition at 25 µg/mL ([9]; 120 h, 5 days): 91%
